This is an account of results in article PMC10725504, “The co-crystal structure of Cbl-b and a small-molecule inhibitor reveals the mechanism of Cbl-b inhibition” (Communications Biology, 2023).

This experiment concerns the target T1, Cbl-b (Homo sapiens, UniProt Q13191).
T1 construct: gene CBLB; TKBD-LHR-RING (38–427) and full-length (1–982)
In words: FP-based displacement assay (fluorescent probe). It is filed as binding.

T1 sequence (Q13191 38-427): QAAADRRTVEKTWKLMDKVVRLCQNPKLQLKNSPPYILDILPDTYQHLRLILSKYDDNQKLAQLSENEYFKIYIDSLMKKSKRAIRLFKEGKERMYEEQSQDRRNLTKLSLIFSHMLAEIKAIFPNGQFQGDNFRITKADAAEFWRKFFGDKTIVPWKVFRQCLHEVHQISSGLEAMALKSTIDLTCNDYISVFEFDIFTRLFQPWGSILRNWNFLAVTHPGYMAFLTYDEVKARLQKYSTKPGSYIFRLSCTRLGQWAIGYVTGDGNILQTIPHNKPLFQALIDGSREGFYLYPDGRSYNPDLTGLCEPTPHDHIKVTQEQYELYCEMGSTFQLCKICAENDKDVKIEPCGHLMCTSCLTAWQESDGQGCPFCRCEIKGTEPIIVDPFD

Turning to `CC1=CC(C)=[N+]2C1=Cc1ccc(CCC(=O)NCCOCCOCCOCCNCc3ccc(C(=O)Nc4cccc([C@H](C)Cc5nncn5C)c4)nc3C3CC3)n1[B-]2(F)F` [C7102], the “FP-based displacement assay (fluorescent probe)” value is “C7683 displaced binding of C7102 to both TKBD-LHR-RING and full-length proteins in a concentration dependent manner”.
